Measured values from ChEMBL document CHEMBL3870357, “2-Hydroxypyridine-N-oxide-Embedded Aurones as Potent Human Tyrosinase Inhibitors” (ACS Med Chem Lett, 2017).

Columns and labels:
[1] = Inhibition of mushroom TyM1 preincubated for 5 mins followed by addition of L-DOPA as substrate measured for 5 mins by spectroscopic method; parameters: species or system Agaricus bisporus
Tyrosinase [2] = target: T1, Tyrosinase (Homo sapiens, UniProt P14679); assay: Inhibition of tyrosinase in human MNT1 cell lysate pretreated prior to addition of L-DOPA as substrate measured after 3 hrs; assay type: cell-based
T1 sequence (P14679 whole entry): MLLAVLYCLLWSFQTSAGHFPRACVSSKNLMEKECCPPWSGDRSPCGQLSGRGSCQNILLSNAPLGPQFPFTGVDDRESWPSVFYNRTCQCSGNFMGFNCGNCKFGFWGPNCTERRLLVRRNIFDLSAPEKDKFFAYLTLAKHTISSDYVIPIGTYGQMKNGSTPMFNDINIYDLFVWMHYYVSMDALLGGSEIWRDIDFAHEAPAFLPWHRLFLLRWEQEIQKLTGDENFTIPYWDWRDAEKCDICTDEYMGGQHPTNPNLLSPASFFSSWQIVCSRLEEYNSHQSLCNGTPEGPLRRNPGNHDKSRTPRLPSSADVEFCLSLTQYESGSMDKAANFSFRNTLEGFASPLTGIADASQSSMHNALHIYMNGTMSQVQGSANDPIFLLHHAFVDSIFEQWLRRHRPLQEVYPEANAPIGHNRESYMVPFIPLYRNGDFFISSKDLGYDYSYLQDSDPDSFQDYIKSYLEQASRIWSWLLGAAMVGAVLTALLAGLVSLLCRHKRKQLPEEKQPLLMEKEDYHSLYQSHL

Tyrosinase [3] = target: T1, Tyrosinase; assay: Inhibition of tyrosinase in human MNT1 cells assessed as suppression of melanin biosynthesis measured after 96 hrs; assay type: cell-based
Tyrosinase [4] = target: T1, Tyrosinase; assay: Inhibition of recombinant human tyrosinase expressed in baculovirus infected Sf9 cells assessed as diphenolase activity using L-DOPA as substrate by UV-vis spectrophotometry
[5] = Cytotoxicity against human MNT1 cells
[6] = target: T2, Tyrosinase (Homo sapiens) (UniProt P14679); conditions: Sf9
T2 sequence (whole entry): T1 sequence (P14679 whole entry)

Row | IC50 [1] [µM] | IC50 (Tyrosinase [2]) [µM] | IC50 (Tyrosinase [3]) [µM] | Ki (Tyrosinase [4]) [µM] | Kic [6] [µM] | SMILES | IC50 [5] [µM]
1 | > 1000 |  |  |  |  | O=C1/C(=C/c2ccc(O)cc2O)Oc2cc(O)ccc21 | 
2 |  | 34 | 119 |  | 1.2 | O=C1/C(=C/c2ccc(=O)n(O)c2)Oc2cc(O)cc(O)c21 | > 500
3 |  | 30 | 120 |  | 1.02 | O=C1/C(=C/c2ccc(=O)n(O)c2)Oc2cccc(O)c21 | 80

Second part, the molecule before the results:

Row | SMILES | IC50 [1] [µM] | IC50 (Tyrosinase [2]) [µM] | IC50 (Tyrosinase [3]) [µM] | Ki (Tyrosinase [4]) [µM] | Kic [6] [µM] | IC50 [5] [µM]
4 | O=C1/C(=C/c2ccc(O)cc2O)Oc2cc(O)cc(O)c21 | 300 |  |  |  |  | 
5 | O=C1/C(=C/c2ccc(=O)n(O)c2)Oc2cc(O)ccc21 | 1.5 | 16.6 | 85.3 | 0.35 |  | > 500
6 | O=c1cc(CO)occ1O [KOJIC ACID] |  |  |  |  |  | > 80000
7 | O=C1/C(=C/c2ccc(O)cc2O)Oc2cccc(O)c21 | 9 |  |  |  |  | 
